Measurements published in patent US10945931B2, “Shaping keratin fibres using dialdehyde compounds” (The Procter & Gamble Company, priority 2015, dated 2021).

Assay: Hair straightening efficacy on hair switches, expert grading after wash-and-dry cycles
Settings: 10% treatment, QSP water buffered at pH 10; flat iron 232° C., 8 passes; after 10 wash cycles; 0-10 scale (0 curly, 10 very straight)
Protocol: The hair straightening efficacy is tested for the crosslinking compositions described herein. Switches of low lift naturally curly hair are employed. These are shampooed with a Pantene clarifying shampoo to ensure the hair is in a clean state with no residues that could affect the end result. The switches are then rinsed. Excess water is removed from the hair by wringing out the switches. The switches are treated with a crosslinking composition; QSP water buffered at pH 10. These ingredients are mixed on a spinner plate for 30 mins. 0.5 g of crosslinking composition per 1 g hair is employed. The crosslinking composition is left on the hair for 30 minutes. After this time, the hair is blow dried and brushed. The switches are then mechanically straightened with a flat iron (at 450° F. [232° C.] with 8 passes.
The switches are then imaged. To simulate durability, the switches are then given one wash-and-dry cycle. One wash-and-dry cycle involves shampooing with a Hairtrition shampoo (Hairtrition Color Protect sulfate-free shampoo from Zotos), rinsing and then drying in a hot box. Once dry the switches are imaged again. The switches are then given 9 further wash-and-dry cycles. Once dry the switches are imaged again. An expert grader gives the images of the switches a score on a 0-10 scale. The scale is a standard scale set as curly hair having 4-5 nodes of curls is a score of 0 and very straight hair is a 10. Thus, the switches are compared to a normal state of hair. Using an expert grader is reliable because the grader is trained on measuring/scaling the configuration of the hair from straight to curly in a consistent way. Numeric data obtained by this method is averaged, and statistical analysis is conducted using JMP statistical software available from the SAS Institute at the […] confidence level. […] However, given similar straightening efficacy the dialdehyde compounds described herein have advantages over glutaraldehyde due to the lower cost of materials and increased safety profile.

Compound | Straightening efficacy Mean grade
O=CCCCC=O [Glutaraldehyde, glutaraldehyde] | 5.00
O=CC(O)C(O)C(O)C=O (stereo not drawn) [Pentodialdose, pentodialdose] | 5.33
O=CC(O)CO (stereo not drawn) [Glyceraldehyde] | 2.67
